Structures are written as SMILES.

For test [1], the system named is F-TERRA-T (RNA, G4) GGGUUAGGGUUAGGGUUAGGG
Description: FRET-melting. The settings on record: K+ (CacoK1, Table S1); CacoK1 buffer; 1 μM compound, 0.2 μM nucleic acid; no competitor.

Test [2] concerns 5'Cy5-Myc (DNA, G4) GAGGGTGGGGAGGGTGGGGAAG
The experiment in a line: Cy5 fluorescence quenching titration. To be noted: 50 mM TrisHCl/Triton buffer (Table S1), 25 °C; 20 nM DNA; apparent.

In test [3] the test system is F-VEGF-T (RNA, G4) GGAGGAGGGGAGGAGGA
The experiment in a line: FRET-melting. To be noted: K+ (CacoK1, Table S1); CacoK1 buffer; 1 μM compound, 0.2 μM nucleic acid; no competitor.

The test system of test [4] is F21T (DNA, G4) GGGTTAGGGTTAGGGTTAGGG
Description: FRET-melting. To be noted: K+ (CacoK10, Table S1); CacoK10 buffer; 1 μM compound, 0.2 μM nucleic acid; no competitor.

For test [5], the system named is F-Myc-T (DNA, G4) GAGGGTGGGGAGGGTGGGGAAG
The experiment in a line: FRET-melting. To be noted: K+ (CacoK1, Table S1); CacoK1 buffer; 1 μM compound, 0.2 μM nucleic acid; no competitor.

In test [6] the test system is F-NRAS-T (RNA, G4) GGGAGGGGCGGGUCUGGG
The experiment in a line: FRET-melting. The settings on record: 1 μM compound, 0.2 μM RNA; no competitor; buffer not stated.

In test [7] the test system is F-Kit2-T (DNA, G4) CGGGCGGGCGCGAGGGAGGGG
The experiment in a line: FRET-melting. The settings on record: buffer not stated in main text.

Test [8] concerns F-TERRA (RNA, G4) GGGUUAGGGUUAGGGUUAGGG
Description: streptavidin bead pull-down, FAM fluorescence. The settings on record: Mg2+ (concentration in Table S1); 20 mM TrisHCl/MgCl2 buffer, 25 °C; 10 μM compound, 1 μM nucleic acid; no TASQ = 1.

Test [9] has as its system F-VEGF (RNA, G4) GGAGGAGGGGAGGAGGA
The experiment in a line: streptavidin bead pull-down, FAM fluorescence. The settings on record: Mg2+ (concentration in Table S1); 20 mM TrisHCl/MgCl2 buffer, 25 °C; 10 μM compound, 1 μM nucleic acid; no TASQ = 1.

Test [10] concerns F-Myc (DNA, G4) GAGGGTGGGGAGGGTGGGGAAG
Description: streptavidin bead pull-down, FAM fluorescence. The settings on record: Mg2+ (concentration in Table S1); 20 mM TrisHCl/MgCl2 buffer, 25 °C; 10 μM compound, 1 μM nucleic acid; no TASQ = 1.

The subject of test [11] is F-duplex (DNA, hairpin) TATAGCTATATTTTTTTATAGCTATA
The experiment in a line: streptavidin bead pull-down, FAM fluorescence. The settings on record: Mg2+ (concentration in Table S1); 20 mM TrisHCl/MgCl2 buffer, 25 °C; 10 μM compound, 1 μM DNA; no TASQ = 1.

Test [12] has as its system F-22AG (DNA, G4) AGGGTTAGGGTTAGGGTTAGGG
Description: streptavidin bead pull-down, FAM fluorescence. To be noted: Mg2+ (concentration in Table S1); 20 mM TrisHCl/MgCl2 buffer, 25 °C; 10 μM compound, 1 μM nucleic acid; no TASQ = 1.

The subject of test [13] is G4-strand (97-nt ODN) (DNA, G4) TAGCCATTCAGCCGTAACAGGCAGTGGAAGAGAGACAGACAGGGCAGGGCAGGGCAGGGCAGTACAGTAGAACCTAATGGTGTTTGATGGTATCTAA
Description: streptavidin bead pull-down, qPCR (SYBR green). To be noted: 40 μM compound, 4 μM DNA; fluorescence difference from no TASQ.

The test system of test [14] is F-NRAS (RNA, G4) GGGAGGGGCGGGUCUGGG
The experiment in a line: streptavidin bead pull-down, FAM fluorescence. To be noted: Mg2+ (concentration in Table S1); 20 mM TrisHCl/MgCl2 buffer, 25 °C; 10 μM compound, 1 μM nucleic acid; no TASQ = 1.

On to `C#CCCCC(=O)NCC1CN(CCCCCNC(=O)CN(CCN)C(=O)Cn2cnc3c(=O)[nH]c(N)nc32)CCN(CCCCCNC(=O)CN(CCN)C(=O)Cn2cnc3c(=O)[nH]c(N)nc32)CCN(CCCCCNC(=O)CN(CCN)C(=O)Cn2cnc3c(=O)[nH]c(N)nc32)CCN1CCCCCNC(=O)CN(CCN)C(=O)Cn1cnc2c(=O)[nH]c(N)nc21` (centres unmarked), for which the ΔT1/2 is 11.0 ± 0.9 °C in [1]; 11.9 ± 0.4 °C in [3]; 2.5 ± 0.2 °C in test [4]; 5.3 ± 0.3 °C in test [5]; 11.8 ± 0.7 °C in test [6]; 5.8 ± 0.2 °C in test [7]. Besides, the appKD in [2] was 1.44 ± 0.1 µM.
As for `C[n+]1cc(NC(=O)c2ccc3ccc4ccc(C(=O)Nc5cc6ccccc6[n+](C)c5)nc4c3n2)cc2ccccc21`, in test [2], the appKD was found to be 0.0577 ± 0.0002 µM.
Turning to `NCCN(CC(=O)NCCCCCN1CCN(CCCCCNC(=O)CN(CCN)C(=O)Cn2cnc3c(=O)[nH]c(N)nc32)CCN(CCCCCNC(=O)CN(CCN)C(=O)Cn2cnc3c(=O)[nH]c(N)nc32)C(CNC(=O)CCCC[C@@H]2SC[C@@H]3NC(=O)N[C@@H]32)CN(CCCCCNC(=O)CN(CCN)C(=O)Cn2cnc3c(=O)[nH]c(N)nc32)CC1)C(=O)Cn1cnc2c(=O)[nH]c(N)nc21` (some centres unmarked), the fold enrichment in test [8] is listed as 4.0 ± 0.0 fold; in test [9], 8.2 ± 0.2 fold; in test [10], 21.5 ± 0.1 fold; in test [11] it was 0.9 ± 0.2 fold; in test [12], 15.9 ± 0.9 fold; in test [14] it was 5.2 ± 0.9 fold. Further, the appKD in test [2] worked out at 1.01 ± 0.1 µM. The ΔFI in test [13] is reported as 457.
In the case of `[N-]=[N+]=NCCCCCC(=O)NCC1CN(CCCCCNC(=O)CN(CCN)C(=O)Cn2cnc3c(=O)[nH]c(N)nc32)CCN(CCCCCNC(=O)CN(CCN)C(=O)Cn2cnc3c(=O)[nH]c(N)nc32)CCN(CCCCCNC(=O)CN(CCN)C(=O)Cn2cnc3c(=O)[nH]c(N)nc32)CCN1CCCCCNC(=O)CN(CCN)C(=O)Cn1cnc2c(=O)[nH]c(N)nc21` (centres unmarked), the ΔT1/2 in test [1] is 12.4 ± 0.6 °C; in test [3] it was 11.3 ± 0.4 °C; in test [4], 2.2 ± 0.3 °C; in test [5] it was 6.4 ± 0.2 °C; in test [6] it was 14.6 ± 1.1 °C; in test [7], 7.7 ± 1.0 °C. Besides, the appKD in test [2] was 0.90 ± 0.1 µM.
